The values that follow come from US9221838B2, “Inhibitors of AKT activity” (ALMAC DISCOVERY LIMITED, priority 2009, dated 2015).

Experiment [1] deals with T1, AKT1 (Homo sapiens, UniProt P31749).
T1 construct: purchased SignalChem
Briefly: AKT Kinase Assay (IMAP fluorescent polarisation) vs AKT1. It counts as biochemical. The gist of the method:
(§1)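 Phosphorylation of FAM-Crosstide detected by IMAP binding and fluorescence polarisation (485/528 nm), with IC50 fitted from % inhibition versus vehicle. Compound was incubated 45 min with enzyme, then reacted 1 h at room temperature with ATP and peptide in Tris/MgCl2/DTT buffer. Dose response had fourteen half-log points.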

Experiment [2] has as its system GSK3β phosphorylation. Briefly: phosphorylation status of members of the AKT/PI3K pathway via ELISA. It counts as cell-based. The note with it: measured at 48 h, read-out: inhibition of GSK3β phosphorylation, IC50. Background: ELISA stands for enzyme-linked immunosorbent assay.
Experiment [3] deals with T2, AKT2 (Homo sapiens, UniProt P31751).
T2 construct: purchased SignalChem
Briefly: AKT Kinase Assay (IMAP fluorescent polarisation) vs AKT2. In kind it is biochemical. Summed up: as §1

The subject of experiment [4] is PC3 and/or LnCaP cell lines. Briefly: in vitro cell proliferation assay (Cell Titre Glo). In kind it is cell-based. The note with it: Homo sapiens, read-out: inhibition of proliferation, IC50. Here is the method: Testing of the compounds was also performed using in vitro cell proliferation assays:
Cell Titre Glo (Promega) is a highly sensitive homogeneous reagent used to determine the viability of cells. The reagent uses a stable form of luciferase to measure ATP as an output of viability. The luminescent values generated in the assay are directly proportional to the number of viable cells in your assay.
The following materials were used: White, clear bottomed 96 well assay plates (Costar); Cell titre Glo reagents; LnCaP (ECACC) cells grown in RPMI medium (Invitrogen) supplemented with 10 mM HEPES (Invitrogen), 1 mM Sodium pyruvate (Invitrogen), 2 mM L-Glutamine (Invitrogen) and 10% Foetal calf serum (Invitrogen); PC3 (ECACC) cells grown in RPMI medium supplemented with 10% Foetal calf serum (Invitrogen); Trypsin (Invitrogen); PBS (Invitrogen); Biotek Synergy 4 Hybrid Plate reader; 96 well plate shaker (Stuart SSL5); Eppendorf 5414 desk-top centrifuge; Beckman Coulter cell counter Z1 single threshold system.
Prostate cell lines, PC3 and LnCaP, were washed, detached and re-suspended in their respective fresh media. The cells were pelleted by centrifugation (Eppendorf 5414) and spent supernatant discarded. The cells were re-suspended by vortex mixing, counted and seeded into clear bottom white 96 well plates at a density of 5000 cells per well. The cells were incubated (Sanyo) overnight at 37° C. ([…]), and next day treated with increasing concentrations of test compound formulated in fresh medium. The plates were returned to the incubator for 72 hours. […]
The cell viability post compound treatment was determined by the luminescent intensity emitted from the drug treated wells in the plate. In brief, the assay plate was placed in the Biotex Synergy 4 Hybrid plate reader and the luminescence read in each well. The compound treated wells were compared to vehicle treated wells and the % inhibition of cell viability calculated.
The data was analysed using GraphPad Prism, with IC50 values generated using non-linear regression of the data set.

Experiment [5] has as its target T3, AKT3 (Homo sapiens, UniProt Q9Y243).
T3 construct: purchased SignalChem
As to the kind of experiment: AKT Kinase Assay (IMAP fluorescent polarisation) vs AKT3. It counts as biochemical. Summed up:
as §1

Structures are written as SMILES.

T3 sequence (Q9Y243 whole entry): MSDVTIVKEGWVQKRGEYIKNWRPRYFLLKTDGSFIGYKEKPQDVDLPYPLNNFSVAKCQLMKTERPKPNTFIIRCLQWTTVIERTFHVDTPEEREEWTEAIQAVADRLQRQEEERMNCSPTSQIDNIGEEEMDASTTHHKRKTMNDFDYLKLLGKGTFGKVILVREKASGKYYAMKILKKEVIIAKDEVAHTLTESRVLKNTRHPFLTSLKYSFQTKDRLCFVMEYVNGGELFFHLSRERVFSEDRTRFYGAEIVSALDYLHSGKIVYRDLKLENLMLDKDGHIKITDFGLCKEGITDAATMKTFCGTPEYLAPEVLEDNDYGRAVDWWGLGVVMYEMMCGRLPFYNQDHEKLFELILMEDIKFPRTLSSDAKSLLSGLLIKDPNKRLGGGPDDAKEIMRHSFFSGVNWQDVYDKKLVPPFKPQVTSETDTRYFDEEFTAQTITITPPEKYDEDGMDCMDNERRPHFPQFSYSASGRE
T1 sequence (P31749 whole entry): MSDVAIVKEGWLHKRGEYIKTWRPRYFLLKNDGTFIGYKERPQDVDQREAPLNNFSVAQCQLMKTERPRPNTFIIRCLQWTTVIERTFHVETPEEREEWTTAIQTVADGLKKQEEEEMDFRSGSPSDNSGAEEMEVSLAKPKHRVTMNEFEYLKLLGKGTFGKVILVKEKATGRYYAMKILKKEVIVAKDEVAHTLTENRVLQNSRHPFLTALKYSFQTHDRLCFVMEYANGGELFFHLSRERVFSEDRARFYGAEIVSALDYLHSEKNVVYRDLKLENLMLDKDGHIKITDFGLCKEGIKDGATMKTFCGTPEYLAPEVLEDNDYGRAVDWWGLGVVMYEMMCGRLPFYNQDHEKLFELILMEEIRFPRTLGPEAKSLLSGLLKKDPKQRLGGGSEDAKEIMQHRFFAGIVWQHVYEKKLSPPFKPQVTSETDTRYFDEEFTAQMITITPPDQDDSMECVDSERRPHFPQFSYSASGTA
T2 sequence (P31751 whole entry): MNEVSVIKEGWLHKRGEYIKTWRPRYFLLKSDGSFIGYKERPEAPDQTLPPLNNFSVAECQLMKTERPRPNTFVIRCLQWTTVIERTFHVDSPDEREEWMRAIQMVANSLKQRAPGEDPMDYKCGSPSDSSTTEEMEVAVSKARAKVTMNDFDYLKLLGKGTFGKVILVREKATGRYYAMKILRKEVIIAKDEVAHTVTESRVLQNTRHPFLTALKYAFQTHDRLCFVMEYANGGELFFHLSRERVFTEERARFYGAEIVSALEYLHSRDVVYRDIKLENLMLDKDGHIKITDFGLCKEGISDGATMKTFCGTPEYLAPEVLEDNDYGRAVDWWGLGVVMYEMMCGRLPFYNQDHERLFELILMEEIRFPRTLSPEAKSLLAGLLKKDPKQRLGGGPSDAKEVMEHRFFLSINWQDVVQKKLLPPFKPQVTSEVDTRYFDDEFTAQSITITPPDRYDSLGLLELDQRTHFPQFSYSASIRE

Consider `NC1(c2ccc(-c3nc4c(cc3-c3ccccc3)-c3n[nH]cc3CC4)cc2)CCC1` [Example 4, 1-(4-(8-phenyl-4,5-dihydro-2H-pyrazolo[3,4-f]quinolin-7-yl)phenyl)cyclobutanamine], for which the IC50 in experiment [1] was at most 0.1 µM; in experiment [2] it was under 0.1 µM; in experiment [3] it was 0.1 to 1 µM; in experiment [4], under 10 µM; in experiment [5], over 10 µM.
Take `NC1(c2ccc(-c3nc4c(cc3-c3ccccc3)-c3nncn3CC4)cc2)CCC1` [Example 28, 1-(4-(9-phenyl-5,6-dihydro-[1,2,4]triazolo[3,4-f][1,6]naphthyridin-8-yl)phenyl)cyclobutanamine]: the IC50 in experiment [1] was 1 to 10 µM; in experiment [3], 0.1 to 1 µM; in experiment [4] it was under 10 µM; in experiment [5], over 10 µM.
With `CN1C(=O)COc2nc(-c3ccc(C4(N)CCC4)cc3)c(-c3ccccc3)cc21` [Example 31, 6-(4-(1-aminocyclobutyl)phenyl)-1-methyl-7-phenyl-1H-pyrido[2,3-b][1,4]oxazin-2(3H)-one], the IC50 in experiment [1] was at most 0.1 µM; in experiment [3] it was 0.1 to 1 µM; in experiment [4] it was under 10 µM; in experiment [5], 1 to 10 µM.
